# pKi: −log10 of the molar value.
# What was measured:
# Type in all cases: biochemical
# [1] = target: T1, Zea mays EPSPS variant Zm-H6 (868-H6) with R61Y (H6-R61Y) (Zea mays, UniProt O24566, A1R/A3W/A415G/A71Q/D401G/E301S/E390G/G101A/I207L/K83R/L97C/R60Y/T278A/T360S/T440Q/V437R); assay: Rapid two-rate method for (kcat/KM)*KI, H6-R61Y; settings: [E] 0.07 uM, [Gly] 1000 uM
# T1 construct: 868-H6 plus R61Y; E. coli BL21(DE3), Ni-NTA purified
# T1 sequence (O24566 with tags, fused parts or gaps A1R/A3W/R60Y/A71Q/K83R/L97C/G101A/I207L/T278A/E301S/T360S/E390G/D401G/A415G/V437R/T440Q): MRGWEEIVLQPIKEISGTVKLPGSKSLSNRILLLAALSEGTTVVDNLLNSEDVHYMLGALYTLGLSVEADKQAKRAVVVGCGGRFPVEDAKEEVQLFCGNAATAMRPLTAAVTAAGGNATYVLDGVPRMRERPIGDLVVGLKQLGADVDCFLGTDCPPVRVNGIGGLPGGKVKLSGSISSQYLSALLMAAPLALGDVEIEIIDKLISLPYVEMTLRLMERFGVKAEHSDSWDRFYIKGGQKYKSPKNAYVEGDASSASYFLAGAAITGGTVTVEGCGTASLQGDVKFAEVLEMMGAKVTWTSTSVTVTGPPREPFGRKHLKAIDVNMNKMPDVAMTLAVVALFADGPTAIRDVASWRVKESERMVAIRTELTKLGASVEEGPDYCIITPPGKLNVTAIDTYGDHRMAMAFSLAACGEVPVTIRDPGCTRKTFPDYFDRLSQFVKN
# Text: (§1) There are several practical considerations for accurately estimating (kcat/KM)*KI with the rapid method. […] 2) The inhibitor concentration must be adjusted so as to obtain a degree of inhibition that minimally amplifies the error in the term v0-vi in Equation 3. If inhibition is too little, v0-vi will be small, and the error in the multiplier vi×v0/(v0-vi) will be large. […] 3) Substrate concentration should be set at the approximate KM of the parental variant(s), subject to the sensitivity of the assay. High substrate concentration obscures sensitivity to the inhibitor and reduces stringency for capturing improvements in KM. Depending on the necessity for speed, there exists opportunity for customizing enzyme and inhibitor concentrations. […] The rapid method was repeated for those and obtained data that correlated better with data obtained by substrate saturation analysis. For screening purposes however, that correlation step is not necessary. Conditions can be set so that variants with a pre-determined minimal fitness level are accurately quantified.
# (§2) In Table 15, parameters above the heavy line for the rapid method were obtained under standard conditions. For variants shown below the heavy line, the rapid analysis was repeated with enzyme or glyphosate concentrations adjusted as needed to generate sufficient signal within the limits for linear initial rates.
# Bacterial EPSPS (CP4) = Bacterial EPSPS (CP4) (Agrobacterium sp., UniProt Q9R4E4); assay: Rapid two-rate method for (kcat/KM)*KI, bacterial EPSPS (CP4)
# Text: as §1, §2
# [2] = target: Zea mays EPSPS variant WT-FS-B (103I 107S 278G 338S) (Zea mays, UniProt O24566, A337S/P106S/T102I/T277G); assay: EPSPS substrate saturation kinetics, WT-FS-B
# Protocol: EPSPS activity was determined by quantifying the phosphate generated from the EPSPS reaction. Release of inorganic phosphate was coupled to reaction with 2-amino-6-mercapto-7-methylpurine ribonucleoside, catalyzed by purine-nucleoside phosphorylase (M R Webb, Proc. Natl. Acad. Sci. 89:4884-4887, 1992). The absorbance change that occurs was monitored at 360 nm, where the extinction is 11,200 M^−1 cm^−1, with a Spectramax plate reader (Molecular Devices). To determine kinetic parameters, the varied substrate was present at seven concentrations (the eighth being the blank, containing no substrate) ranging from 4 to 400 uM and the unvaried substrate present at saturation. […] Reactions were monitored with a Spectramax plate reader. […] KI was then calculated from the following form of the Michaelis-Menten equation for competitive inhibition: KI=KM[I]/(KM app−KM) KM approximates the dissociation constant of the enzyme-substrate complex while kcat is the rate of conversion of substrate to product when the substrate concentration is saturating. kcat/KM is a widely accepted parameter for catalytic efficiency when substrate concentration is low (˜KM). […] The parameter kcat/KM×KI is used to quantify both catalytic efficiency and insensitivity and thus the overall fitness of the enzyme. […]
# Chain of Zea mays EPSPS variant WT-FS-B (103I 107S 278G 338S) (O24566 entry or part of it T102I/P106S/T277G/A337S): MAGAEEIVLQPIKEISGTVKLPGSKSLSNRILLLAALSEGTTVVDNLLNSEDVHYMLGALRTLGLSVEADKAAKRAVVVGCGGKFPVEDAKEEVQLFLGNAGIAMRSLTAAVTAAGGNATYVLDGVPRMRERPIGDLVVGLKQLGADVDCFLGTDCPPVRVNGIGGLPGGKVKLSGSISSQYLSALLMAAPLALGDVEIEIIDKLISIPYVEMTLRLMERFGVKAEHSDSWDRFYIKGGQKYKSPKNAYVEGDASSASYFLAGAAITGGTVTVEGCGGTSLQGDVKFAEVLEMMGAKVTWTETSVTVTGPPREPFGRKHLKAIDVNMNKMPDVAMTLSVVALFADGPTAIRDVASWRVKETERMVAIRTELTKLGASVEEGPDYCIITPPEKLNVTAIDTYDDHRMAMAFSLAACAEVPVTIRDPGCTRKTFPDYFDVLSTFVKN
# Chain of Bacterial EPSPS (CP4) (Q9R4E4 whole entry): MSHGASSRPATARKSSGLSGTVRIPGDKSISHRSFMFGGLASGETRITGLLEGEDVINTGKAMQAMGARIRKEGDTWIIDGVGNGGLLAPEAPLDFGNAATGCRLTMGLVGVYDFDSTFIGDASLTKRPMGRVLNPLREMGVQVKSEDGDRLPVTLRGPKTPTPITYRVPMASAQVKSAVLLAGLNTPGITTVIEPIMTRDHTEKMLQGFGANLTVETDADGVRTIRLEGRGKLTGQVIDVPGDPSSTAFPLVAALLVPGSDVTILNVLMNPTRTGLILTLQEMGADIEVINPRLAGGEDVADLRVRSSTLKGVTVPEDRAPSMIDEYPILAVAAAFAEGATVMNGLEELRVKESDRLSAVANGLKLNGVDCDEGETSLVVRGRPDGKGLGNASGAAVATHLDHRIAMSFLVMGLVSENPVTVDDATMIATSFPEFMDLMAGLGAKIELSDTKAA
structure (smiles),measurement,setting,value
"O=C(O)CNCP(=O)(O)O [glyphosate, N-phosphonomethylglycine]",(kcat/KM)*KI,[1],1889
same,(kcat/KM)*KI,"Bacterial EPSPS (CP4); rapid method repeated, CP4, [E] 0.007 uM, [Gly] 2000 uM",111800
same,(kcat/KM)*KI,"Bacterial EPSPS (CP4); rapid method, Bacterial EPSPS, [E] 0.07 uM, [Gly] 1000 uM",64262
same,pKi,[2],3.26
same,(kcat/KM)*KI,"[2]; PEP as substrate, glyphosate as inhibitor",1971

# Source: US11549123B2, “Plant EPSP synthases and methods of use” (PIONEER HI-BRED INTERNATIONAL, INC., priority 2015, dated 2023)
